# Measurements: ChEMBL document CHEMBL1149226, “Inhibitors of hepatitis C virus NS3.4A protease. Part 3: P2 proline variants” (Bioorg Med Chem Lett, 2004)
# Starred links: 1 amine or outer side, 2 acyl side, 3 side chain; linkers in the order of their positions; H or OH if unused. Non-standard residues stand in square brackets, D forms with d. Residues, ends and D or L forms follow the SMILES beside them. Groups on a side chain read outwards from the residue. *: point of attachment. Tetrahydroisoquinolin(2-yl) = c1ccc2c(c1)CCN(*)C2; Pro(3S-Et) = CC[C@H]1CCN[C@@H]1C(=O)O; X1 = CCC[C@H](N[*:1])C(=O)C(=O)[*:2]; Pyrazinecarbonyl = O=C(c1cnccn1)*; Hyp = O=C(O)[C@@H]1C[C@@H](O)CN1; CO = O=C([*:1])[*:2]
# Target: Hepatitis C virus serine protease, NS3/NS4A (Hepatitis C virus, UniProt A3EZI9+D2K2A8)
# Sequence (D2K2A8 whole entry): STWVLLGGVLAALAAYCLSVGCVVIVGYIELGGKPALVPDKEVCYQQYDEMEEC
# Sequence (A3EZI9 whole entry): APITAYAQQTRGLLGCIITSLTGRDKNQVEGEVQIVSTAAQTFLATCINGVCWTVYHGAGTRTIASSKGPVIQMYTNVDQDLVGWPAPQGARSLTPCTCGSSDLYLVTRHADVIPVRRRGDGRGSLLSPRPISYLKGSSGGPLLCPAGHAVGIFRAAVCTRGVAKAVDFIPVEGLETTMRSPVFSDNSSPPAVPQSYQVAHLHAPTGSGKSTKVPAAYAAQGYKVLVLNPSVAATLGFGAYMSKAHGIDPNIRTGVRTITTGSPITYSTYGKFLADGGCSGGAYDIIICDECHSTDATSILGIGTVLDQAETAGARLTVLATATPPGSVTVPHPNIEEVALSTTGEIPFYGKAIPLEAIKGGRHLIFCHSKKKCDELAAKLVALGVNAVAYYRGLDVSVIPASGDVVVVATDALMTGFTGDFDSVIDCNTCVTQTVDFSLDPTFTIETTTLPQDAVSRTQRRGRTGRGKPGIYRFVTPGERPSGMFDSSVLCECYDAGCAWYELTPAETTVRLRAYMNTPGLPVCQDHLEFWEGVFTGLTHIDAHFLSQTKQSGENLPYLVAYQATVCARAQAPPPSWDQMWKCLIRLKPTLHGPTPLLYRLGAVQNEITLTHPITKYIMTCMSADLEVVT
# Test: (§1) Inhibitory activity against hepatitis C virus NS3.4A protease
# Type: protein-complex assay, Hepacivirus hominis
row,Structure (SMILES),Ki
1,CCC[C@H](NC(=O)[C@@H]1CCCN1C(=O)[C@@H](NC(=O)[C@@H](NC(=O)c1cnccn1)C1CCCCC1)C(C)(C)C)C(=O)C(=O)NC1CC1,1200 nM

# Target: Hepatitis C virus serine protease, NS3/NS4A (Hepatitis C virus, UniProt D2K2A8+A3EZI9)
# Sequence (D2K2A8 whole entry): as the sequence (D2K2A8 whole entry) above
# Sequence (A3EZI9 whole entry): as the sequence (A3EZI9 whole entry) above
# Test: as §1
# Type: protein-complex assay, Hepacivirus hominis
row,Structure (SMILES),Ki
1,C=CC[C@H]1CCN(C(=O)[C@@H](NC(=O)[C@@H](NC(=O)c2cnccn2)C(C)C)C(C)C)[C@@H]1C(=O)N[C@@H](CCC)C(=O)C(=O)N[C@@H](Cc1ccccc1)C(=O)O,210 nM
2,CCC[C@H](NC(=O)[C@@H]1[C@@H](CC)CCN1C(=O)[C@@H](NC(=O)[C@@H](NC(=O)c1cnccn1)C(C)C)C(C)C)C(=O)C(=O)N[C@@H](Cc1ccccc1)C(=O)O (Pyrazinecarbonyl-VV[Pro(3S-Et)][X1]F-OH),220 nM
3,CC[C@H](NC(=O)[C@@H]1[C@@H](C)CCN1C(=O)[C@@H](NC(=O)[C@@H](NC(=O)c1cnccn1)C(C)C)C(C)C)C(=O)C(=O)N[C@@H](C)c1ccccc1,1400 nM
4,CCC[C@H]1CCN(C(=O)[C@@H](NC(=O)[C@@H](NC(=O)c2cnccn2)C(C)C)C(C)C)[C@@H]1C(=O)N[C@@H](CCC)C(=O)C(=O)N[C@@H](Cc1ccccc1)C(=O)O,1200 nM
5,CCC[C@H](NC(=O)[C@@H]1[C@@H](C(C)CC)CCN1C(=O)[C@@H](NC(=O)[C@@H](NC(=O)c1cnccn1)C(C)C)C(C)C)C(=O)C(=O)N[C@@H](Cc1ccccc1)C(=O)O (some centres undefined),120 nM
6,CC[C@H](NC(=O)[C@@H]1C[C@@H](OCc2ccccc2)CN1C(=O)[C@@H](NC(=O)[C@@H](NC(=O)c1cnccn1)C(C)C)C(C)C)C(=O)C(=O)N[C@@H](C)c1ccccc1,920 nM
7,CCC[C@H](NC(=O)[C@@H]1[C@@H](C(=O)OC)CCN1C(=O)[C@@H](NC(=O)[C@@H](NC(=O)c1cnccn1)C(C)C)C(C)C)C(=O)C(=O)N[C@@H](Cc1ccccc1)C(=O)O,180 nM
8,CCC[C@H](NC(=O)[C@@H]1C[C@@H](OC(=O)N2CCc3ccccc3C2)CN1C(=O)[C@@H](NC(=O)[C@@H](NC(=O)c1cnccn1)C(C)C)C(C)C)C(=O)C(=O)N[C@@H](Cc1ccccc1)C(=O)O (Pyrazinecarbonyl-VV[Hyp]([CO-Tetrahydroisoquinolin(2-yl)])[X1]F-OH),20 nM
